Reference: patent US12559464B2, “Quinazolinone dione compounds and uses thereof” (Edgewise Therapeutics, Inc., priority 2023, dated 2026)

Assays:
[1] = test system: myosin ATPase, Rabbit Psoas myofibrils; assay: Myofibril ATPase assay, rabbit psoas (skeletal) myofibrils; type: biochemical; conditions: Rabbit Psoas Prep pCa 25 GEOM_MEAN; for Rabbit Psoas EC25 (Y75 value): concentration required to reduce myosin ATP-ase activity by 25%; for Rabbit Psoas Y125 value (marked #): concentration required to increase myosin ATP-ase activity by 25%
Procedure: [Worded in the source for another species; this species is reported under the same test.] (§1) Myofibril ATPase assays are known in the art to be useful in evaluating small molecules for the treatment of HCM and other cardiac indications. Myosin ATPase activity is assessed by using a coupled reaction system, in which ADP generated by the myosin ATPase function is coupled to the disappearance of NADH through the pyruvate kinase/lactate dehydrogenase (PK-LDH) system. ATPase activity produces ADP, which is used as a substrate for PK to produce pyruvate and regenerate ATP. The pyruvate is then used as a substrate by LDH to oxidize NADH to NAD+. The rate of the reaction is monitored through the time-dependent disappearance of NADH using absorbance at 340 nm, which, when the couple system is in stoichiometric excess, is directly correlated to the ATPase activity of the myosin. Inhibition of ATPase activity by the assayed compounds is indicated by a reduced rate of NADH loss, relative to vehicle-treated controls, over the experimental time window. Porcine Ventricle are the primary sources of myofibril material.
(§2) Materials: The following stock solutions and reagents were used in the Myofibril ATPase Assay: Stock Solutions; PIPES, 200 mM and 120 mM in H2O, pH 7.0; MgCl2 in H2O, 200 mM; PM12 Buffer, 10×: 120 mM PIPES (from 200 mM stock), 20 mM MgCl2 (from 200 mM stock); PBS Buffer, 1X: 135 mM NaCl, […], 10 mM Na(PO4)2, 1.8 mM K2(PO4), pH 7.4; EGTA in H2O, 250 mM; CaCl2) in H2O, 500 mM; DTT in H2O, 1 M; BSA in H2O, 10 mg/mL; ATP in 1×PBS, 50 mM; NADH in 1X PM12 and 1 mM DTT, 26 mM; PEP in 1X PM12, 78 mM, pH 7.0.
(§3) Stock Solutions of pCa buffer. Combine PIPES, CaCl2, and EGTA solutions with water. Adjust pH to 7.0 and bring final volume to 100 mL.
(§4) Buffer A & Buffer B. Prepare buffers A and B according to the table below.
(§5) Myofibril ATPase Assay Procedure: BSA, ATP, NADH, PEP, and DTT solutions were thawed at room temperature, then transferred to ice. Pellet-frozen myofibrils were transferred with approximately twice the required volume into a sufficiently large tube and capped. Myofibrils were thawed by rolling in a water bath for approximately 15 min at room temperature and cooled on ice. Buffers A and B were prepared by adjusting volumes as necessary for required number of wells and stored on ice. 0.5 μL of the compounds to be assayed were added into wells. 25 μL of Buffer A was dispensed into the wells, followed by 25 μL of Buffer B. The wells were measured for absorbance at 340 nm, using a kinetic protocol in which the wells are read every 1.5-2 min for 75 min. Assay data analysis was performed using a python script that filtered the raw data to retain those points falling between a starting and ending time and between a maximum and minimum absorbance, then used the filtered time-domain 340 nm absorbance data in each well to calculate a slope via linear regression analysis in units of mAU/min. Compound slopes were normalized between 100% and 0% activity, where 100% represented the slope of wells containing only compound vehicle, and fit to a 4-parameter logistic model. In addition to the fit parameters, the EC25% values were calculated, relative to the 100% normalized value. Additionally, the Y125 values were calculated for compounds that increased myosin ATP-ase activity. Fit parameters, calculated effective concentrations, filtered raw data, and calculated slopes were exported, in addition to compound-specific graphs of normalized ATPase activity versus concentration in μM. Each value reported in Table 8 is either a Y75 value or a Y125 value. Values without pound sign, #, are Y75 values, which reflect the concentration required to reduce myosin ATP-ase activity by 25% (e.g., Y-axis activity value is 75% of initial value), relative to myosin ATP-ase activity in the absence of exogenous compound. […]

[2] = test system: myosin ATPase, Porcine Atria myofibrils; assay: Myofibril ATPase assay, porcine atria myofibrils; type: biochemical; conditions: concentration required to reduce myosin ATP-ase activity by 25%; Porcine Atria Prep pCa 25 GEOM_MEAN
[3] = molecular target: T1, myosin ATPase, Porcine Ventricle myofibrils (Sus scrofa, UniProt P79293); assay: Myofibril ATPase assay, porcine ventricle myofibrils; type: biochemical, porcine (Yucatan minipigs); conditions: concentration required to reduce myosin ATP-ase activity by 25%; Porcine Ventricle Prep pCa 25 GEOM_MEAN
T1 construct: Myofibrils from porcine cardiac muscle was isolated from the left ventricle of Yucatan minipigs; tissue Exemplar Genetics; host or cells: left ventricle of Yucatan minipigs, myofibrils
Procedure: as §1, §2, §3, §4, §5

T1 sequence (P79293 whole entry): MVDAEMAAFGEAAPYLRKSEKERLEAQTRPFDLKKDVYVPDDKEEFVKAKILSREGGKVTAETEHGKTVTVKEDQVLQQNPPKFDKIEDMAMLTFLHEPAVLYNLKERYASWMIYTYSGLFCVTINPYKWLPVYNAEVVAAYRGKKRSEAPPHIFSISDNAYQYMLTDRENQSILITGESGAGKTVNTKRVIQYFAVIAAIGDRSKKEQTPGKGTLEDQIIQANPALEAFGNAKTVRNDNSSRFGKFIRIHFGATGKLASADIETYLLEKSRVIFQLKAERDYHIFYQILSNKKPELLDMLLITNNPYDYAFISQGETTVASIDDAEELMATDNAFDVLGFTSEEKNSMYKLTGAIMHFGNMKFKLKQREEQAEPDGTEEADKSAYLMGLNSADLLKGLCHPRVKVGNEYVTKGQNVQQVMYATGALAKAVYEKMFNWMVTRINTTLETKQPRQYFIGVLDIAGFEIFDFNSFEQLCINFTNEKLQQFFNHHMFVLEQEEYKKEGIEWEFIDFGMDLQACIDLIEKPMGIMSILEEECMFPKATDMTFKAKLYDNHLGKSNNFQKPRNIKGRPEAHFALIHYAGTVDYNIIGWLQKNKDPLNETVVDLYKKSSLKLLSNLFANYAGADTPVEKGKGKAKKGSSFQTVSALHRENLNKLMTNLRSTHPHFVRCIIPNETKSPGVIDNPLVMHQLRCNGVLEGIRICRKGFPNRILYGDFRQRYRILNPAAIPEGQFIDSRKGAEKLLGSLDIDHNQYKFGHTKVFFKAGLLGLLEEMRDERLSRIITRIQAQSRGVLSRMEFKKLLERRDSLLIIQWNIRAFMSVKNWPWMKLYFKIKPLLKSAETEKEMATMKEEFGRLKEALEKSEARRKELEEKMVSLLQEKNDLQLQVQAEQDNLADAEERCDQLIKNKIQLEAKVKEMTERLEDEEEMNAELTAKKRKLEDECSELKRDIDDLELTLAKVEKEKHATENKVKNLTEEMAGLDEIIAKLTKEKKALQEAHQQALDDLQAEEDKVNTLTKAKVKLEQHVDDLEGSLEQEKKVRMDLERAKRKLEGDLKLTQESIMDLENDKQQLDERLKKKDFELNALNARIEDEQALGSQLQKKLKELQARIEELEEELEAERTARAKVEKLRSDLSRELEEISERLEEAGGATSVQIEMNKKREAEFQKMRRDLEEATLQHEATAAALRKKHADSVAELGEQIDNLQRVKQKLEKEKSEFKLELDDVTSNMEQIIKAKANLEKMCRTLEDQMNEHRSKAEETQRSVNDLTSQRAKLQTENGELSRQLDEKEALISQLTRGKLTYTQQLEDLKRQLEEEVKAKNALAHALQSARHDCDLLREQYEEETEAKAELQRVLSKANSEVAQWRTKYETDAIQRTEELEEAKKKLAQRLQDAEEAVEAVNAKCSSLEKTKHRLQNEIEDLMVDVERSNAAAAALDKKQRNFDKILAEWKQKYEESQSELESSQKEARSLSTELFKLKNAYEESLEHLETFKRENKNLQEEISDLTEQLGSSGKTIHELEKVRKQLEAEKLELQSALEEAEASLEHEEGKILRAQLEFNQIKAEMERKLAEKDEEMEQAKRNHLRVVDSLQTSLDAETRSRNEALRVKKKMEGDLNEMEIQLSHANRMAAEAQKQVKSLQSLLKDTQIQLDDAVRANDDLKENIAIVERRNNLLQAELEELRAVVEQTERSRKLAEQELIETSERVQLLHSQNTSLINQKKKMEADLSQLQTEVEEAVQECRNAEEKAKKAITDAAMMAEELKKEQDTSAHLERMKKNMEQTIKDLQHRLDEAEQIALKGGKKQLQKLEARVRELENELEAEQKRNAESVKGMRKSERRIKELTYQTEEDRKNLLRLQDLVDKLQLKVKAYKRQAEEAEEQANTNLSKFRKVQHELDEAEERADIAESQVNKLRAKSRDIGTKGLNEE

SMILES | Rabbit Psoas EC25 (Y75 value) [1] | Porcine Atria EC25 (Y75 value) [2] | Porcine Ventricle EC25 (Y75 value) [3] | Rabbit Psoas Y125 value (marked #) [1]
Cc1nccc2[nH]c(=O)n(CC(=O)N[C@H](C)c3ncc(C#N)cc3F)c(=O)c12 (single isomer, unassigned) [Compound 19] | 21.6 µM | 15.77 µM | 100 µM | 
C[C@@H](NC(=O)Cn1c(=O)[nH]c2ccc(F)c(F)c2c1=O)c1ncc(C#N)cc1F (single isomer, unassigned) [Compound 21] | 1.66 µM | 1.799 µM | 0.615 µM | 
C[C@H](NC(=O)Cn1c(=O)[nH]c2ccc(F)c(F)c2c1=O)c1ncc(C#N)cc1F (single isomer, unassigned) [Compound 22] | 0.036 µM | 0.083 µM | 0.205 µM | 
CC(C)C[C@@H](C(=O)N[C@@H](C)c1ncc(F)cc1F)n1c(=O)[nH]c2ccccc2c1=O (single isomer, unassigned) [Compound 27] | 100 µM | 100 µM | 100 µM | 
CC(C)C[C@H](C(=O)N[C@@H](C)c1ncc(F)cc1F)n1c(=O)[nH]c2ccccc2c1=O (single isomer, unassigned) [Compound 28] | 39.563 µM | 59.55 µM | 100 µM | 
CC(C)C[C@@H](C(=O)N[C@@H](C)c1ccc(F)cc1F)n1c(=O)[nH]c2ccccc2c1=O (single isomer, unassigned) [Compound 31] |  | 56.82 µM | 59.48 µM | 24.3^# μM
CC(C)C[C@H](C(=O)N[C@@H](C)c1ccc(F)cc1F)n1c(=O)[nH]c2ccccc2c1=O (single isomer, unassigned) [Compound 32] |  | 68.73 µM | 100 µM | 7.64^#^ μM
C[C@H](NC(=O)[C@H](C)n1c(=O)[nH]c2cccc(O)c2c1=O)c1ccc(F)cc1F (single isomer, unassigned) [Compound 35] | 0.086 µM | 0.0835 µM | 1.64 µM | 
C[C@H](NC(=O)[C@@H](C)n1c(=O)[nH]c2cccc(O)c2c1=O)c1ccc(F)cc1F (single isomer, unassigned) [Compound 36] | 0.104 µM | 0.0803 µM | 1.35 µM | 
O=C(Cn1c(=O)[nH]c2ccncc2c1=O)N[C@H]1CCc2cc(F)cc(F)c21 (single isomer, unassigned) [Compound 44] | 1.145 µM | 36.5 µM | 100 µM | 
O=C(Cn1c(=O)[nH]c2ccccc2c1=O)N[C@H]1CCc2cc(F)cc(F)c21 (single isomer, unassigned) [Compound 48] | 0.156 µM | 0.4184 µM | 7.872 µM | 
CC[C@H](NC(=O)Cn1c(=O)[nH]c2ccccc2c1=O)c1ccc(F)cc1F (single isomer, unassigned) [Compound 49] | 100 µM | 100 µM | 100 µM | 
CC(C)[C@H](NC(=O)Cn1c(=O)[nH]c2ccccc2c1=O)c1ccc(F)cc1F (single isomer, unassigned) [Compound 50] | 100 µM | 100 µM | 100 µM | 
O=C(Cn1c(=O)[nH]c2ccccc2c1=O)N[C@H]1CCCc2cc(F)cc(F)c21 (single isomer, unassigned) [Compound 55] | 100 µM | 100 µM | 100 µM | 
O=C(Cn1c(=O)[nH]c2ccccc2c1=O)N[C@@H]1CCCc2cc(F)cc(F)c21 (single isomer, unassigned) [Compound 57] | 0.937 µM | 1.067 µM | 25.71 µM | 
CC(C)C[C@H](NC(=O)Cn1c(=O)[nH]c2ccccc2c1=O)c1ccc(F)cc1F (single isomer, unassigned) [Compound 70] |  | 100 µM | 100 µM | 90.27^# μM
C[C@H](NC(=O)Cn1c(=O)[nH]c2ccccc2c1=O)c1ccc(O)nc1 (single isomer, unassigned) [Compound 98] | 100 µM | 100 µM | 100 µM | 
C[C@H](NC(=O)Cn1c(=O)[nH]c2ccccc2c1=O)c1ccncc1F (single isomer, unassigned) [Compound 99] | 100 µM | 100 µM | 100 µM | 
C[C@@H](NC(=O)Cn1c(=O)[nH]c2ccccc2c1=O)c1ccncc1F (single isomer, unassigned) [Compound 100] | 12.272 µM | 31.84 µM | 100 µM | 
C[C@H](NC(=O)[C@@H](C)n1c(=O)[nH]c2ccccc2c1=O)c1ccc(F)cc1F (single isomer, unassigned) [Compound 101] | 1.521 µM | 1.036 µM | 87.37 µM | 
C[C@H](NC(=O)[C@H](C)n1c(=O)[nH]c2ccccc2c1=O)c1ccc(F)cc1F (single isomer, unassigned) [Compound 102] | 0.761 µM | 1.175 µM | 99.13 µM | 
C[C@H](NC(=O)Cn1c(=O)[nH]c2cccc(F)c2c1=O)c1ncc(C#N)cn1 (single isomer, unassigned) [Compound 202] | 7.437 µM | 8.617 µM | 100 µM | 
C[C@H](NC(=O)Cn1c(=O)[nH]c2cccc(C#N)c2c1=O)c1ncc(C#N)cn1 (single isomer, unassigned) [Compound 204] | 100 µM | 100 µM | 70.61 µM | 
C[C@@H](NC(=O)Cn1c(=O)[nH]c2cccc(F)c2c1=O)c1ncc(C#N)cc1F (single isomer, unassigned) [Compound 207] | 4.593 µM | 100 µM | 100 µM | 
C[C@H](NC(=O)Cn1c(=O)[nH]c2cccc(F)c2c1=O)c1ncc(C#N)cc1F (single isomer, unassigned) [Compound 208] | 0.065 µM | 0.085 µM | 0.254 µM | 
C[C@@H](NC(=O)Cn1c(=O)[nH]c2ccc(F)cc2c1=O)c1cnc(C#N)nc1 (single isomer, unassigned) [Compound 209] | 39.51 µM | 100 µM | 100 µM | 
